Source: US20110319392A1, “Thiazole Sulfonamide And Oxazole Sulfonamide Kinase Inhibitors” (priority 2009, published 2011)

Key:
[1] = target: B-Raf (Homo sapiens, UniProt P15056); assay: B-Raf Accelerated MEK ATPase assay (BRAMA), Method A or B; assay type: biochemical; conditions: Method B: final MEK 150 nM, single end point read
Procedure: Compounds of the present invention were tested for B-Raf protein serine kinase inhibitory activity in a B-Raf Accelerated MEK ATPase assay (BRAMA). The BRAMA assay is a high sensitivity assay which measures an intrinsic MEK-mediated ATP hydrolysis uncoupled from downstream ERK phosphorylation by coupling the formation of ADP to NADH oxidation through the enzymes pyruvate kinase and lactate dehydrogenase. When ADP production is initiated by addition of catalytic amounts of an activated Raf enzyme and non-phosphorylated MEK, one observes robust ADP production concomitant with Raf-mediated phosphorylation of MEK.
Method A: Specific details of the assay are disclosed in: C. Rominger, M. Schaber, E. May. Assay for B-Raf Activity Based on Intrinsic MEK ATPase Activity. Statutory Invention Registration 11/084,993 (March, 2005). Method B: The method is the same as method A, but includes the following changes: 1) the assay was performed with a final MEK concentration of 150 nM and 2) the assay was read as single end point instead of a kinetic read.

[2] = target: T1, EGFR (Homo sapiens, UniProt P00533); assay: EGFR substrate phosphorylation assay (HTRF); assay type: biochemical
T1 construct: made in house; host or cells: baculovirus expression system
T1 sequence (P00533 25-1210): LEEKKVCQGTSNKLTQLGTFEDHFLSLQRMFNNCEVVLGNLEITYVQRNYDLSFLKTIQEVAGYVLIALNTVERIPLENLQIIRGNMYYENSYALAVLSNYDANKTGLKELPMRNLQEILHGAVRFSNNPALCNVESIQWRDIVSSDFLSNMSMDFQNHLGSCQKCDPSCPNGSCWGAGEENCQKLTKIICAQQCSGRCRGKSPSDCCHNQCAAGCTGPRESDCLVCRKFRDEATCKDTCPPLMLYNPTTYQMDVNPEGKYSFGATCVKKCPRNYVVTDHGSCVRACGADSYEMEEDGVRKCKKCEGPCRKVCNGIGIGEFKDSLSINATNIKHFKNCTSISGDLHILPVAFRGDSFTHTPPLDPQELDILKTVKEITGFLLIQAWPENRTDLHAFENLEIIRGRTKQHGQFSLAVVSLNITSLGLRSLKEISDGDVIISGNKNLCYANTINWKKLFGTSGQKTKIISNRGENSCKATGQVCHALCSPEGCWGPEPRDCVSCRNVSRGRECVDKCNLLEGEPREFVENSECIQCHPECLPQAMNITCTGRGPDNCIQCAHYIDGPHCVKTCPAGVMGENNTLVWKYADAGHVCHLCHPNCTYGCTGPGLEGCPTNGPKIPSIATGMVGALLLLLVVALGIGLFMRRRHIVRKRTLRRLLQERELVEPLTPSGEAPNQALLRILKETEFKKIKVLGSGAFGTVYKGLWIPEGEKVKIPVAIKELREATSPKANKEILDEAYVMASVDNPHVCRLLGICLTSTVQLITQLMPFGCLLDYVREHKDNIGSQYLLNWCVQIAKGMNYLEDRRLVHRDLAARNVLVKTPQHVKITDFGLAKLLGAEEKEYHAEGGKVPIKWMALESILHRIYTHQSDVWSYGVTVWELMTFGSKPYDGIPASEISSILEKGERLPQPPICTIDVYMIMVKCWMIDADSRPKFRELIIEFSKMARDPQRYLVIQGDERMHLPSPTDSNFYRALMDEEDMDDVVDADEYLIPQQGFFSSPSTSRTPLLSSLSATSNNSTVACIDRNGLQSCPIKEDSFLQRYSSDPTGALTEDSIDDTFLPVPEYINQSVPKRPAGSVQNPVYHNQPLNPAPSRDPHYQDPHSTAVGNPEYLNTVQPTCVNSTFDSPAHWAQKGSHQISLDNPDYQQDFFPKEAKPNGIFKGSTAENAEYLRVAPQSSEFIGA
Procedure: (§1) Compounds of the present invention were tested for EGFR and ErbB-2 protein tyrosine kinase inhibitory activity in substrate phosphorylation assays using enzymes purified from a baculovirus expression system. Reagent production was conducted essentially as described in Brignola, P. S., et al, (2002) J. Biol. Chem. 277(2):1576-1585.
(§2) The method measures the ability of the isolated enzyme to catalyse the transfer of the gamma-phosphate from ATP onto the tyrosine residue of a biotinylated synthetic peptide referenced “Peptide C” in Brignola, P. S., et al, (2002) J. Biol. Chem. 277(2):1576-1585. The extent of tyrosine phosphorylation was measured using an anti-phosphotyrosine antibody, and quantified by homogenous time-resolved fluorescence (HTRF).
(§3) Reactions were performed in black 384-well polystyrene flat-bottom plates in a final volume of 20 μL. Assays were performed by adding 10 μL of each of the following solutions, Substrate Mix and Enzyme Mix: The Substrate Mix contained 100 mM 3-[N-morpholino]propanesulfonic acid (MOPS) (pH 7.5), 2 mM MnCl2, 20 μM ATP, 0.01% Tween-20, 0.1 mg/mL (BSA), 0.8 uM peptide substrate, and 1 mM dithiothreitol. The Enzyme Mix contained 100 mM MOPS (pH7.5); 0.01% Tween-20; 0.1 mg/mL BSA, and either 0.8 nM EGFR, 10 nM ErbB2, or 1 nM ErbB4. The Enzyme Mix was added to the compound plates and the plates were incubated at 20° C. for 1 hr. The reactions were then started by adding the Substrate Mix.
(§4) After initiating the reaction with the method described above, the reactions were allowed to proceed for 90 minutes at 20° C. The reactions were then terminated by the addition of 20 μL 100 mM EDTA to each well. 40 μL/well of HTRF detection mix were added to the assay plates. The final concentrations of the detection reagents were: 100 mM HEPES (pH7.5), 0.1 mg/mL BSA, 15 nM streptavidin-labeled allophycocyanin (PerkinElmer), and 1 nM europium-labeled anti-phosphotyrosine antibody (Perkin Elmer). Assay plates were left unsealed and were counted in a Wallac Multilabel Counter 1420 (PerkinElmer).
(§5) Compounds under analysis were dissolved in dimethylsulfoxide (DMSO) to 1.0 mM and serially diluted 1 to 3 with DMSO through twelve dilutions. 1 μL of each concentration was transferred to the corresponding well of an assay plate. This creates a final compound concentration range from 0.00027 to 47.6 μM.
(§6) The data for dose responses were plotted as % Inhibition calculated with the data reduction formula 100*(1-(U1−C2)/(C1−C2)) versus concentration of compound where U1 is the unknown value, C1 is the average control value obtained for 4.76% DMSO, and C2 is the average control value obtained for 0.035 M EDTA. Data were fitted with a curve described by:
(§7) where Vmax is the upper asymptote, Y2 is the Y intercept, and K is the IC50. The results for each compound were recorded as pIC50s, calculated as follows: […]

[3] = system: Colo205 tumor cells; assay: Cell growth inhibition assay (CellTiter-Glo), Colo205; assay type: cell-based, Human; conditions: Homo sapiens, COLO 205, 72 h; 3 days incubation
Procedure: (§8) Human breast tumor cells (BT474) were cultured in RPMI (Mediatech […]), containing 10% FBS (JRH Biosciences 12176) and 1% penicillin-streptomycin (Invitrogen 15140). Human head and neck tumor cells (HN5) were cultured in high glucose DMEM (Mediatech 50-013-PB) containing 10% FBS and 1% penicillin-streptomycin. Human colon tumor cells (Colo205) were cultured in RPMI (Mediatech 50-020-PB) containing 10% FBS and 1% penicillin-streptomycin. Human melanoma cancer cells (SK-MEL-28) were cultured in EMEM with nonessential amino acids (Mediatech 50-011-PB) containing 10% FBS, 1% sodium pyruvate (JT Baker 3354-04), and 1% penicillin-streptomycin. Human melanoma cancer cells (A375P F11s) were cultured in RPMI (Mediatech 50-020-PB) containing 10% FBS, 1% sodium pyruvate, and 1% penicillin-streptomycin. Human colon cancer cells (HT-29) were cultured in high glucose DMEM (Mediatech 50-013-PB) containing 10% FBS and 1% penicillin-streptomycin. Human melanoma cancer cells (SK-MEL-3) were cultured in McCoy's 5A (50-025-PB) containing 15% FBS, and 1% penicillin-streptomycin. All cell lines were maintained at 37° C. in a humidified 5% CO2, 95% air incubator. Cells were harvested using trypsin/EDTA (Invitrogen 25200), counted using a haemocytometer, and plated. For 96-well assays (using white full-area NUNC plates cat. #136102), cells were plated in 105 μL at the following densities (cells/well): HNS, 500; Colo 205, 500; SK-MEL-28, 500; A375P F11s, 500; HT-29, 500; SK-MEL-3, 500; and BT474, 3000. For 384-well assays (white full-area NUNC plates, cat. #781080), cells were plated in 48 μL at the following densities (cells/well): HNS, 500; Colo205, 500; SK-MEL-28, 500; A375P F11s, 500; HT-29, 500; SK-MEL-3, 500; and BT474, 2000.
(§9) The next day, compounds were diluted as follow: For 96-well assays, 13.5 μL of compound in DMSO were diluted using nine (9) serial 1:3 dilutions of 4.5 μL in 9 of DMSO. Medium (270 μL/well of RPMI with 10% FBS and 1% penicillin-streptomycin) was added to the plates. Aliquots (7 μL) were added to cells in the final assay giving a final DMSO concentration of 0.2%. For 384-well assays, 15 μL of compound in DMSO were diluted using nine (9) serial 1:3 dilutions of 5 μL in 10 μL of DMSO, followed by a further dilution of 5 μL of compound with 95 μL of medium, of which 2 μL were added to cells in the final assay giving a final DMSO concentration of 0.2%. Cells were incubated at 37° C., 5% CO2 for 3 days.
(§10) Total ATP was measured (as a surrogate estimate of cell number) using CellTiter-Glo® reagent (Promega G7571). Briefly, plates were removed from the incubator and allowed to equilibrate to room temperature for 30 minutes. CellTiter-Glo® (25 μL or 55 μL for 384-well or 96-well assays, respectively) reagent was added to each well and plates were shaken on an orbital plate shaker for 2 minutes. Plates were incubated without shaking for a further 30 minutes and read on an LJL Analyst GT reader in luminometer mode with an integration time of 0.5 seconds per well. Percent inhibition of cell growth was calculated relative to DMSO vehicle-treated control wells. Concentration of compound required to give 50% inhibition of vehicle-treated control cell growth (IC50) was interpolated using a 4-parameter fit for determining IC50 using the following equation: Y=A +((B−A)/(1+((C/X)̂D))) where […].

[4] = system: SK-MEL-28 tumor cells; assay: Cell growth inhibition assay (CellTiter-Glo), SK-MEL-28; assay type: cell-based, Human; conditions: Homo sapiens, SK-MEL-28, 72 h; 3 days incubation
Procedure: as §8, §9, §10

[5] = target: T2, ErbB2 (Homo sapiens, UniProt P04626); assay: ErbB-2 substrate phosphorylation assay (HTRF); assay type: biochemical
T2 construct: made in house; host or cells: baculovirus expression system
T2 sequence (P04626 23-1255): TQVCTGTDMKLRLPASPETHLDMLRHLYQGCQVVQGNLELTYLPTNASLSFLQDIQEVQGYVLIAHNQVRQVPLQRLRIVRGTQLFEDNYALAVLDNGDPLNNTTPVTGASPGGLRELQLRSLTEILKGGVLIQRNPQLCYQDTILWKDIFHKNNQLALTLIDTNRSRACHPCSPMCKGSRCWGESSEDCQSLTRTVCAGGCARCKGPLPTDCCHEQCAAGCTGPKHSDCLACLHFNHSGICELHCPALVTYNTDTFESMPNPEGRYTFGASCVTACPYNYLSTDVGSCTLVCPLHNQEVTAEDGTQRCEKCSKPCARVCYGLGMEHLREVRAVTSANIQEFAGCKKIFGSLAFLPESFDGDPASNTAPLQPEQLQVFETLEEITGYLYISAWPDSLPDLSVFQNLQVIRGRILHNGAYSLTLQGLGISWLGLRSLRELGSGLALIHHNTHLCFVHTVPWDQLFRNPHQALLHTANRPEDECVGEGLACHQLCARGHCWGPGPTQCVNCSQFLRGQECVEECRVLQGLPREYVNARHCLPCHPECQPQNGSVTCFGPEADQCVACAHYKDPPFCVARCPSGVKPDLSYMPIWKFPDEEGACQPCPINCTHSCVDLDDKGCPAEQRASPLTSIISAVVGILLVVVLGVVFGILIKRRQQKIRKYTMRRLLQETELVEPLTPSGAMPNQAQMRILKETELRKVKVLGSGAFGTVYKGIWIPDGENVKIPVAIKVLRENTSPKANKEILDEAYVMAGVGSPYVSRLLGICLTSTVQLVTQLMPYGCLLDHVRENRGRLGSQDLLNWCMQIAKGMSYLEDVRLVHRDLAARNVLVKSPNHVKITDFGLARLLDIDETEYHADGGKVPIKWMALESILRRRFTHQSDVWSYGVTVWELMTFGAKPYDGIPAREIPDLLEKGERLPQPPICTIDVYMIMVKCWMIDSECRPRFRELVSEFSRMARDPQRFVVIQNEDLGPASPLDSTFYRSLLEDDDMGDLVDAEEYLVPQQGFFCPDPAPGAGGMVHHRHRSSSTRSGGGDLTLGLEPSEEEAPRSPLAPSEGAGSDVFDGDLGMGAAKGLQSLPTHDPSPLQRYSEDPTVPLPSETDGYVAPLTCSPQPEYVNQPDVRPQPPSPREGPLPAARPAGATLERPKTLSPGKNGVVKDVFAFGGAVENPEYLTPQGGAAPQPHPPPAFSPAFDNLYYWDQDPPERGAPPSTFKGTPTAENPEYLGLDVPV
Procedure: as §1, §2, §3, §4, §5, §6, §7

Chain of B-Raf (P15056 whole entry): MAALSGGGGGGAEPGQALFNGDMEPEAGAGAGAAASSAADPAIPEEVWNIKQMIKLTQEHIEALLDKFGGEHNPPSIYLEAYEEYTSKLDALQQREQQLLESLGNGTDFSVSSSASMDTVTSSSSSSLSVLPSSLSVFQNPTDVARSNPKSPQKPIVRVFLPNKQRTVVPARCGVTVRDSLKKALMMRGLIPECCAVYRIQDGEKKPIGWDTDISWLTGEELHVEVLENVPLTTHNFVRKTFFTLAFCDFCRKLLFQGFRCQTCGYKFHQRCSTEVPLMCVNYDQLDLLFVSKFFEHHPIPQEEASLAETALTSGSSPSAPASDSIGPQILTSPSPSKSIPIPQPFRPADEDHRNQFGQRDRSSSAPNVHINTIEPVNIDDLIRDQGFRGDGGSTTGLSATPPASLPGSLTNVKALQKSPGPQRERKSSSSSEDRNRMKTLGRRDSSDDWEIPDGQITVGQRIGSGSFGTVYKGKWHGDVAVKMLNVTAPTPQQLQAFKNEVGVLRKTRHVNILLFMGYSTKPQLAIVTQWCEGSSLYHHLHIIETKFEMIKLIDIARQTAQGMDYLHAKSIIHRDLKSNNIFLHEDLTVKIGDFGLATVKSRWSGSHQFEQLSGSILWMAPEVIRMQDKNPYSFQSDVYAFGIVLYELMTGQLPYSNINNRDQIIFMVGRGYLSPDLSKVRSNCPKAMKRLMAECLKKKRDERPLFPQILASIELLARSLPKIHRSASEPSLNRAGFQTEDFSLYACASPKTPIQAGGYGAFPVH

IC50 [1] [nM] | IC50 [2] [nM] | IC50 [3] [nM] | IC50 [4] [nM] | IC50 [5] [nM] | Structure (SMILES)
100 to 1000 | > 1000 | 100 to 1000 | 100 to 1000 | > 1000 | CC(C)(F)c1nc(-c2ccc(F)c(NS(=O)(=O)c3c(F)cccc3F)c2)c(-c2ccnc(Nc3ccc(N4CCOCC4)nc3)n2)s1 [Example 103]
100 to 1000 | > 1000 | 100 to 1000 | > 1000 | > 1000 | COc1ccc(S(=O)(=O)Nc2cccc(-c3nc(C(C)C)sc3-c3ccnc(Nc4ccc(N5CCOCC5)nc4)n3)c2)cc1OC [Example 104]
100 to 1000 | > 1000 | 100 to 1000 | > 1000 | 100 to 1000 | Cc1cc(S(=O)(=O)Nc2cccc(-c3nc(C(C)C)sc3-c3ccnc(Nc4ccc(N5CCOCC5)nc4)n3)c2)c(F)cc1Cl [Example 105]
< 100 | > 1000 | 100 to 1000 | > 1000 | > 1000 | COc1cc(N2CCC(CCS(C)(=O)=O)CC2)c(C)cc1Nc1nccc(-c2sc(C(C)C)nc2-c2ccnc(NS(=O)(=O)c3c(F)cccc3F)c2)n1 [Example 108]
< 100 | > 1000 | 100 to 1000 | > 1000 | > 1000 | COC(=O)c1ccc(S(=O)(=O)Nc2cccc(-c3nc(C(C)C)sc3-c3ccnc(Nc4ccc(N5CCOCC5)nc4)n3)c2)o1 [Example 110]
100 to 1000 | 100 to 1000 | > 1000 | > 1000 | 100 to 1000 | Cc1ccc(-c2nc(C(C)C)sc2-c2ccnc(Nc3ccc(N4CCOCC4)nc3)n2)cc1NS(=O)(=O)c1c(F)cccc1F [Example 111]
100 to 1000 | 100 to 1000 | > 1000 | > 1000 | 100 to 1000 | COc1cc2c(cc1Nc1nccc(-c3sc(C(C)C)nc3-c3cccc(NS(=O)(=O)c4c(F)cccc4F)c3)n1)N(C(=O)CN(C)C)CC2 [Example 118]
< 100 | < 100 | 100 to 1000 | < 100 | < 100 | COc1cc(N2CCN(CCS(C)(=O)=O)CC2)c(C)cc1Nc1nccc(-c2sc(C(C)C)nc2-c2cccc(NS(=O)(=O)c3c(F)cccc3F)c2F)n1 [Example 125]

The remaining lines, values behind:

Structure (SMILES) | IC50 [1] [nM] | IC50 [2] [nM] | IC50 [3] [nM] | IC50 [4] [nM] | IC50 [5] [nM]
Nc1nc(-c2ccc(F)c(NS(=O)(=O)c3c(F)cccc3F)c2)c(-c2ccnc(Nc3ccc(N4CCOCC4)nc3)n2)s1 [Example 64] | < 100 | 100 to 1000 | > 1000 | > 1000 | < 100
CCc1nc(-c2ccc(F)c(NS(=O)(=O)c3ccccc3)c2)c(-c2ccnc(Nc3ccc(N4CCN(CCS(C)(=O)=O)CC4)c(F)c3)n2)s1 [Example 67] | 100 to 1000 | > 1000 | 100 to 1000 | 100 to 1000 | 100 to 1000
CCc1nc(-c2cccc(CNS(=O)(=O)c3ccccc3)c2)c(-c2ccnc(Nc3ccc(N4CCN(C(C)=O)CC4)nc3)n2)s1 [Example 68] | 100 to 1000 | 100 to 1000 | > 1000 | > 1000 | 100 to 1000
CCc1nc(-c2ccc(F)c(NS(=O)(=O)c3ccccc3)c2)c(-c2ccnc(Nc3ccc(N4CCN(C(C)C)CC4)cc3OC)n2)s1 [Example 69] | 100 to 1000 | 100 to 1000 | > 1000 | > 1000 | 100 to 1000
COc1cc(C)ccc1S(=O)(=O)Nc1cccc(-c2nc(C(C)C)sc2-c2ccnc(Nc3ccc(N4CCN(C(C)=O)CC4)nc3)n2)c1 [Example 76] | 100 to 1000 | > 1000 | > 1000 | > 1000 | > 1000
CC(C)c1nc(-c2cccc(NS(=O)(=O)Cc3ccccc3)c2)c(-c2ccnc(Nc3ccc(N4CCOCC4)c(F)c3)n2)s1 [Example 86] | 100 to 1000 | > 1000 | > 1000 | > 1000 | > 1000
COc1c(Nc2nccc(-c3sc(C(C)C)nc3-c3cccc(NS(=O)(=O)c4c(F)cccc4F)c3)n2)ccc(N2CCN(CCS(C)(=O)=O)CC2)c1C [Example 90] | < 100 | > 1000 | 100 to 1000 | 100 to 1000 | > 1000
